Source: patent publication US20230096766A1, “AMINO ACID HAVING FUNCTIONAL GROUP CAPABLE OF INTERMOLECULAR HYDROGEN BONDING, PEPTIDE COMPOUND CONTAINING SAME AND METHOD FOR PRODUCTION THEREOF” (Chugai Seiyaku Kabushiki Kaisha, priority 2018, published 2023)
*1 amine or outer side, *2 acyl side, *3 side chain or, on linkers, in order; H or OH if unused. Where a SMILES comes first, the peptide text is derived from it. Bridges are numbered along the chain shown (N, C = ends). [ ]: non-standard residue; d: D form. The star is where a group is joined. ξ: configuration not given here. dhPhe(4-CONHMe,3-OMe) = CNC(=O)c1ccc(CC[C@@H](N)C(=O)O)cc1OC; X1 = COc1cc(C[C@H](N[*:1])C(=O)[*:2])ccc1C(=O)NO; NMePhe(3-Cl) = CN[C@@H](Cc1cccc(Cl)c1)C(=O)O; X12 = O=C([C@H](CCCC(O)C(F)(F)F)N[*:1])[*:2]; ξGln(SO2Me) = CS(=O)(=O)NC(=O)CCC(N)C(=O)O; NMehPhe = CN[C@@H](CCc1ccccc1)C(=O)O; X6 = O=C([C@H](CCCCO)N[*:1])[*:2]; Hyp = O=C(O)[C@@H]1C[C@@H](O)CN1; NMeF = CN[C@@H](Cc1ccccc1)C(=O)O; NMeI = CC[C@H](C)[C@H](NC)C(=O)O; NMeD = CN[C@@H](CC(=O)O)C(=O)O; CH2CH(OH)CF3 = OC(C*)C(F)(F)F; CH2CONHtBu = CC(C)(C)NC(=O)C*; NMeL = CN[C@@H](CC(C)C)C(=O)O; Thr(3ξ) = CC(O)[C@H](N)C(=O)O; Propyl(2R-OH) = C[C@@H](O)C*; Butyl(3S-OH) = C[C@H](O)CC*; NMeV = CN[C@H](C(=O)O)C(C)C; NMeAbu = CC[C@H](NC)C(=O)O; NMeA = CN[C@@H](C)C(=O)O; Piperidide = C1CCN(*)CC1; dAbu = CC[C@@H](N)C(=O)O; Me2NCH2CH2 = CN(C)CC*; NBuGly = CCCCNCC(=O)O; NPrGly = CCCNCC(=O)O; Ethyl(2-OH) = OCC*; Sar = CNCC(=O)O; tBu = CC(C)(C)*

Assay: in vitro
Details: human
[1] = Caco-2, Caco-2 (membrane permeability)

Structure (SMILES) | Papp (Caco-2, Caco-2 (cm/sec)) | other results
CC(C)C[C@H]1NC(=O)C[C@@H](C(=O)N2CCCCC2)NC(=O)[C@H](CC(C)C)N(C)C(=O)[C@H](Cc2ccccc2)NC(=O)[C@H](Cc2ccccc2)N(C)C(=O)[C@H]([C@@H](C)O)NC(=O)[C@H](CC(C)C)N(C)C(=O)[C@@H]2C[C@@H](OCCO)CN2C(=O)[C@H](CC(C)C)N(C)C(=O)[C@H](COC(C)(C)C)NC(=O)[C@@H]2CCCN2C1=O [AP234] ([dL]PS(tBu)[NMeL][Hyp](Ethyl(2-OH))[NMeL]T[NMeF]F[NMeL]D-Piperidide; lactam N-11) | 1.3 ×10⁻⁶ cm/s | 
CCCN1CC(=O)N(C)[C@@H](CC(C)C)C(=O)N[C@@H](COCC(=O)NC(C)(C)C)C(=O)N(C)[C@@H](CC(C)C)C(=O)N(C)[C@@H](C)C(=O)N[C@H](C(=O)N2CCCCC2)CC(=O)N[C@H](CC(C)C)C(=O)N(C)[C@@H](CC(C)C)C(=O)N[C@@H](Cc2ccccc2)C(=O)N(C)[C@@H](CCc2ccccc2)C(=O)N[C@@H]([C@@H](C)O)C1=O [AP13] ([dL][NMeL]F[NMehPhe]T[NPrGly][NMeL]S(CH2CONHtBu)[NMeL][NMeA]D-Piperidide; lactam N-11) | 0.32 ×10⁻⁶ cm/s | 
CCCCN1CC(=O)N(C)[C@@H](CC(C)C)C(=O)N[C@H](C(=O)N2CCCCC2)CC(=O)N(C)[C@@H](C)C(=O)N[C@@H](CCCC(O)C(F)(F)F)C(=O)N(C)[C@@H](CC(C)C)C(=O)N(C)[C@@H](Cc2ccccc2)C(=O)N[C@@H](CC(C)C)C(=O)N(C)[C@@H](Cc2ccccc2)C(=O)N(C)[C@@H]([C@@H](C)CC)C(=O)N[C@@H]([C@@H](C)O)C1=O (stereo partly drawn) [Compound D04] ([NMeA][X12][NMeL][NMeF]L[NMeF][NMeI]T[NBuGly][NMeL]D-Piperidide; lactam N-11) |  | Papp [1]: 0.2 ×10⁻⁶ cm/s
CCCCN1CC(=O)N(C)[C@@H](CC(C)C)C(=O)N[C@H](C(=O)N2CCCCC2)CC(=O)N(C)[C@@H](C)C(=O)N[C@@H](COCC[C@H](C)O)C(=O)N(C)[C@@H](CC(C)C)C(=O)N(C)[C@@H](Cc2cccc(Cl)c2)C(=O)N[C@@H](CC(C)C)C(=O)N(C)[C@@H](Cc2ccccc2)C(=O)N(C)[C@@H](C(C)C)C(=O)N[C@@H]([C@@H](C)O)C1=O [AP103] ([NMeA]S(Butyl(3S-OH))[NMeL][NMePhe(3-Cl)]L[NMeF][NMeV]T[NBuGly][NMeL]D-Piperidide; lactam N-11) | 0.89 ×10⁻⁶ cm/s | 
CC(C)C[C@@H]1NC(=O)[C@H](Cc2ccccc2)N(C)C(=O)[C@H](C)NC(=O)C[C@@H](C(=O)N2CCCCC2)N(C)C(=O)[C@H](Cc2ccccc2)N(C)C(=O)[C@H](Cc2ccccc2)N(C)C(=O)[C@H](COC(C)(C)C)NC(=O)[C@H](CC(C)C)N(C)C(=O)CN(C)C(=O)[C@H]([C@@H](C)O)NC(=O)[C@H](CC(C)C)N(C)C1=O [pd209] (A[NMeF]L[NMeL]T[Sar][NMeL]S(tBu)[NMeF][NMeF][NMeD]-Piperidide; lactam N-11) | 1.7 ×10⁻⁶ cm/s | 
CC[C@H](C)[C@H]1C(=O)N[C@@H]([C@@H](C)O)C(=O)N(C)CC(=O)N(C)[C@@H](CC(C)C)C(=O)N[C@H](C(=O)N2CCCCC2)CC(=O)N(C)[C@@H](C(C)C)C(=O)N[C@@H](COC[C@@H](C)O)C(=O)N(C)[C@@H](CC(C)C)C(=O)N(C)[C@@H](Cc2cccc(Cl)c2)C(=O)N[C@@H](CC(C)C)C(=O)N(C)[C@@H](Cc2ccccc2)C(=O)N1C [AP79] ([NMeV]S(Propyl(2R-OH))[NMeL][NMePhe(3-Cl)]L[NMeF][NMeI]T[Sar][NMeL]D-Piperidide; lactam N-11) | 1.1 ×10⁻⁶ cm/s | 
CC[C@H](C)[C@@H]1NC(=O)[C@H](CC(C)C)N(C)C(=O)[C@H](COCC(O)C(F)(F)F)NC(=O)[C@H](Cc2ccccc2)N(C)C(=O)CN(C)C(=O)C[C@@H](C(=O)N2CCCCC2)NC(=O)[C@H](CC(C)C)N(C)C(=O)[C@H](COC(C)(C)C)NC(=O)[C@H](CC(C)C)N(C)C(=O)[C@H](Cc2ccccc2)N(C)C(=O)CN(C)C1=O (stereo partly drawn) [Compound C17] ([Sar][NMeF]S(CH2CH(OH)CF3)[NMeL]I[Sar][NMeF][NMeL]S(tBu)[NMeL]D-Piperidide; lactam N-11) |  | Papp [1]: 4.1 ×10⁻⁶ cm/s
CCCCN1CC(=O)N(C)[C@@H](CC(C)C)C(=O)N[C@H](C(=O)N2CCCCC2)CC(=O)N(C)[C@@H](CC(C)C)C(=O)N[C@@H](CC(C)C)C(=O)N(C)[C@@H](CC)C(=O)N(C)[C@@H](Cc2ccccc2)C(=O)NC(CCC(=O)NS(C)(=O)=O)C(=O)N(C)[C@@H](Cc2cccc(Cl)c2)C(=O)N(C)[C@@H](CC(C)C)C(=O)N[C@@H]([C@@H](C)O)C1=O (stereo partly drawn) [pd64] ([NMeL]L[NMeAbu][NMeF][ξGln(SO2Me)][NMePhe(3-Cl)][NMeL]T[NBuGly][NMeL]D-Piperidide; lactam N-11) |  | Papp (Caco-2, Caco-2): 0.15 ×10⁻⁶ cm/s
CC[C@H](C)[C@@H]1NC(=O)[C@H](CC(C)C)N(C)C(=O)CN(C)C(=O)C[C@@H](C(=O)N2CCCCC2)NC(=O)[C@H](CC(C)C)N(C)C(=O)[C@H](Cc2ccc(C(=O)NO)c(OC)c2)NC(=O)[C@H](CC(C)C)N(C)C(=O)[C@H](Cc2cccc(Cl)c2)N(C)C(=O)CN(C)C(=O)[C@H](C(C)O)NC(=O)[C@H](CC(C)C)N(C)C1=O (stereo partly drawn) [AP261] ([Sar][NMeL]I[NMeL][Thr(3ξ)][Sar][NMePhe(3-Cl)][NMeL][X1][NMeL]D-Piperidide; lactam N-11) | 0.02 ×10⁻⁶ cm/s | 
CCCCN1CC(=O)N(C)[C@@H](Cc2ccccc2)C(=O)N(C)[C@@H](CC(C)C)C(=O)N[C@@H](CC(C)C)C(=O)N(C)[C@@H](CC(C)C)C(=O)N[C@H](C(=O)N2CCCCC2)CC(=O)N(C)CC(=O)N(C)[C@@H](CC(C)C)C(=O)N[C@H](CCc2ccc(C(=O)NC)c(OC)c2)C(=O)N(C)[C@@H](CC)C(=O)N[C@@H]([C@@H](C)O)C1=O [AP214] ([Sar][NMeL][dhPhe(4-CONHMe,3-OMe)][NMeAbu]T[NBuGly][NMeF][NMeL]L[NMeL]D-Piperidide; lactam N-11) | 0.84 ×10⁻⁶ cm/s | 
CCCN1CC(=O)N(C)[C@@H](CC(C)C)C(=O)N[C@H](C(=O)N2CCCCC2)CC(=O)N(C)[C@@H](C)C(=O)N[C@@H](CCCCO)C(=O)N(C)[C@@H](CC(C)C)C(=O)N(C)[C@@H](Cc2cccc(Cl)c2)C(=O)N[C@@H](C(C)C)C(=O)N(C)[C@@H](CCc2ccccc2)C(=O)N(C)[C@@H](CC(C)C)C(=O)N[C@@H]([C@@H](C)O)C1=O [Compound B05] ([NMeA][X6][NMeL][NMePhe(3-Cl)]V[NMehPhe][NMeL]T[NPrGly][NMeL]D-Piperidide; lactam N-11) | 0.26 ×10⁻⁶ cm/s | 
CC(C)C[C@@H]1NC(=O)[C@H](CC(C)C)N(C)C(=O)[C@@H](C)NC(=O)C[C@@H](C(=O)N2CCCCC2)NC(=O)[C@H](Cc2ccccc2)N(C)C(=O)[C@H](Cc2ccccc2)N(C)C(=O)[C@H](C)N(C)C(=O)[C@H]([C@@H](C)O)NC(=O)[C@H](Cc2ccccc2)N(C)C(=O)[C@H](COC(C)(C)C)NC(=O)[C@H](Cc2ccccc2)N(C)C1=O [pd234] ([dA][NMeL]L[NMeF]S(tBu)[NMeF]T[NMeA][NMeF][NMeF]D-Piperidide; lactam N-11) |  | Papp (Caco-2, Caco-2 (cm/sec) Papp): 0.15 ×10⁻⁶ cm/s
CCCN1CC(=O)N(C)[C@@H](CC(C)C)C(=O)N[C@@H](CCCCO)C(=O)N(C)[C@@H](Cc2cccc(Cl)c2)C(=O)N(C)[C@@H](CC(C)C)C(=O)N[C@H](C(=O)N2CCCCC2)CC(=O)N[C@H](CC)C(=O)N(C)[C@@H](Cc2ccccc2)C(=O)N[C@@H](CC(C)C)C(=O)N(C)[C@@H](CC(C)C)C(=O)N[C@@H]([C@@H](C)O)C1=O [Compound B10] ([dAbu][NMeF]L[NMeL]T[NPrGly][NMeL][X6][NMePhe(3-Cl)][NMeL]D-Piperidide; lactam N-11) | 0.25 ×10⁻⁶ cm/s | 
CCCCN1CC(=O)N(C)[C@@H](CC(C)C)C(=O)N[C@@H](COC(C)(C)C)C(=O)N(C)[C@@H](CC(C)C)C(=O)N(C)[C@@H](CC)C(=O)N[C@H](C(=O)N2CCCCC2)CC(=O)N[C@H](CC(C)C)C(=O)N(C)[C@@H](Cc2ccccc2)C(=O)N[C@H](CCc2ccc(C(=O)NC)c(OC)c2)C(=O)N(C)[C@@H](CC(C)C)C(=O)N[C@@H]([C@@H](C)O)C1=O [AP209] ([dL][NMeF][dhPhe(4-CONHMe,3-OMe)][NMeL]T[NBuGly][NMeL]S(tBu)[NMeL][NMeAbu]D-Piperidide; lactam N-11) | 0.56 ×10⁻⁶ cm/s | 
CC(C)C[C@@H]1NC(=O)[C@H](Cc2ccccc2)N(C)C(=O)[C@H](COC(C)(C)C)NC(=O)[C@H](Cc2ccccc2)N(C)C(=O)[C@H](C)N(C)C(=O)[C@H](CC(C)C)N(C)C(=O)[C@H](C)N(C)C(=O)C[C@@H](C(=O)N2CCCCC2)N(C)C(=O)[C@H](Cc2ccccc2)N(C)C(=O)[C@H]([C@@H](C)O)NC(=O)[C@H](C(C)C)N(C)C1=O [pd213] ([NMeA][NMeL][NMeA][NMeF]S(tBu)[NMeF]L[NMeV]T[NMeF][NMeD]-Piperidide; lactam N-11) | 1.3 ×10⁻⁶ cm/s | 
CCCCN1CC(=O)N(C)[C@@H](C(C)C)C(=O)N[C@H](C(=O)N2CCCCC2)CC(=O)N(C)[C@@H](C)C(=O)N[C@@H](COCCN(C)C)C(=O)N(C)[C@@H](CC(C)C)C(=O)N(C)[C@@H](Cc2ccccc2)C(=O)N[C@@H](CC(C)C)C(=O)N(C)[C@@H](Cc2ccccc2)C(=O)N(C)[C@@H](CC(C)C)C(=O)N[C@@H]([C@@H](C)O)C1=O [pd56] ([NMeA]S(Me2NCH2CH2)[NMeL][NMeF]L[NMeF][NMeL]T[NBuGly][NMeV]D-Piperidide; lactam N-11) |  | Papp (Caco-2, Caco-2): 0.12 ×10⁻⁶ cm/s
CCCCN1CC(=O)N(C)[C@@H](CC(C)C)C(=O)N[C@@H]([C@@H](C)CC)C(=O)N(C)[C@@H](Cc2ccccc2)C(=O)N[C@@H]([C@@H](C)O)C(=O)N(CCCC)CC(=O)N(C)[C@@H](CC(C)C)C(=O)N(C)[C@@H](Cc2ccccc2)C(=O)N[C@@H](COCC(=O)NC(C)(C)C)C(=O)N(C)[C@@H](C)C(=O)N[C@H](C(=O)N2CCCCC2)CC1=O [AP19] ([NBuGly][NMeL]I[NMeF]T[NBuGly][NMeL][NMeF]S(CH2CONHtBu)[NMeA]D-Piperidide; lactam N-11) | 0.88 ×10⁻⁶ cm/s | 
CC[C@H]1C(=O)N[C@@H](CCCCO)C(=O)N(C)[C@@H](CC(C)C)C(=O)N(C)[C@@H](Cc2cccc(Cl)c2)C(=O)N[C@@H](CC(C)C)C(=O)N(C)[C@@H](CCc2ccccc2)C(=O)N(C)[C@@H](CC(C)C)C(=O)N[C@@H]([C@@H](C)O)C(=O)N(C)CC(=O)N(C)[C@@H](CC(C)C)C(=O)N[C@H](C(=O)N2CCCCC2)CC(=O)N1C [Compound B09] ([NMeAbu][X6][NMeL][NMePhe(3-Cl)]L[NMehPhe][NMeL]T[Sar][NMeL]D-Piperidide; lactam N-11) | 0.31 ×10⁻⁶ cm/s | 
